Experimental data taken from patent publication US20260000781A1, “FC CONJUGATES INCLUDING AN INHIBITOR OF CD73 AND USES THEREOF” (Cidara Therapeutics, Inc., priority 2022, published 2026).
Several values for one entry are separate records, joined by “and”; a condition that tells them apart may be missing. Equal values may be shown once.

Key:
[1] = tested on: adenosine production by human PBMCs; assay: PBMC activation assay, AMP conversion by CellTiter-Glo; assay type: cell-based; conditions: 30 μM AMP, 72 h
Experimental: Human PBMCs (StemCell Technologies cat no. 70025) prepared in ImmunoCult™—XF T cell Expansion medium (StemCell Technologies cat no. 10981) were seeded at 1×10^5 cells per well (100 μL of 1×10^6 cells/mL) in the presence or absence of T cell activator anti-CD3/CD28/CD2 (StemCell Technologies cat no. 10970) in 96 well round bottom plates (Corning cat no. 3788). Ten-fold serial dilutions of each test article was prepared in medium (ranging from 4,000 nM-0.4 nM), resulting in final concentrations ranging from 1,000 nM-0.1 nM. 50 μL of test article was added to the cells, followed by 50 μL of adenosine 5′ monophosphate (AMP; MilliporeSigma cat no. A1752) for a final concentration of 30 μM. Plates were incubated at 37° C. with 5% CO2 for 72 h. After 72 h the cells were centrifuged for 5 min at 300×g at 4° C. and the supernatant was reserved for analysis of AMP conversion using CellTiter-Glo (Promega cat no. G7571).
25 μL of reserved supernatant was transferred to a white 96-well plate (Corning cat no. 3917) and combined with 25 μL of a 1 μM adenosine 5′ triphosphate (ATP; MilliporeSigma cat no. A7699) solution. 50 μL of CellTiter-Glo reagent was added, and the plate incubated for 10 min at room temperature. Luminescence was measured using an EnSpire plate reader (PerkinElmer). […]

CD73 on MDA-MB-231 cells = molecular target: T1, CD73 on MDA-MB-231 cells (Homo sapiens, UniProt P21589); assay: CD73 internalization assay (Fab-ZAP); assay type: cell-based
T1 construct: host or cells: MDA-MB-231
T1 sequence (P21589 27-549): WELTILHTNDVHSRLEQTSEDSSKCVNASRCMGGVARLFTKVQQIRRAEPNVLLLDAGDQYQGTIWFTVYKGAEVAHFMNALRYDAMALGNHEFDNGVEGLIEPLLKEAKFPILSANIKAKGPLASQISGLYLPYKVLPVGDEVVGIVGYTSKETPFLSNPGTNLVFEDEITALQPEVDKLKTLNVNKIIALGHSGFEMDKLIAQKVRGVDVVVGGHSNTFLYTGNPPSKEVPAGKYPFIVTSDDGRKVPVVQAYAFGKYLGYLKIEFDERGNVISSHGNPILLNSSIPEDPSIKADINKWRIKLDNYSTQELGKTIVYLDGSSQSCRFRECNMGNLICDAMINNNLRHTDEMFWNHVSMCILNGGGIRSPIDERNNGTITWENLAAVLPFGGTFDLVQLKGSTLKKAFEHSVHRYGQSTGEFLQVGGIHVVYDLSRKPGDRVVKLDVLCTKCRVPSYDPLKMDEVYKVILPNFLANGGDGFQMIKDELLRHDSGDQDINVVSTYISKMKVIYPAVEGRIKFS
Experimental: Cells were plated into white tissue culture-treated 96 well plates (Corning cat no. 3917) at 5×10^3 to 1×10^4 cells/well in 100 μL in RPMI (Gibco cat no. 11875093)+10% FBS (Gibco cat no. 16140071) and incubated overnight at 37° C. with 5% CO2. Serial dilutions of test article (TA) from 0.00002 nM-200 nM (2× final concentration) were pre-incubated with 100 nM Fab-ZAP reagent (2× final concentration) for 30 min at room temperature. Cells were washed once with 150 μL/well 1×PBS (Gibco cat no. 10010023), followed by the addition of 50 μL/well of media and 50 μL/well TA/Fab-ZAP mix. Cells were then incubated for 72 h at 37° C. with 5% CO2 and viability was determined after 72 h via the CellTiter-Glo assay (Promega cat no. G7570) following the manufacturer's instructions. Cell viability RLU versus log10 nM drug concentration was plotted using GraphPad Prism. The % CD73 internalization was calculated using the following formula: % CD73 internalization=[1−RLU (sample)/RLU (untreated cells)]×100%. The EC50's for each TA was calculated using the 4 PL non-linear regression analysis in GraphPad Prism software.
Cells were plated into white tissue culture-treated 96 well plates (Corning cat no. 3917) at 2×10^3 cells/well in 100 μL in RPMI (Gibco cat no. 11875093)+10% FBS (Gibco cat no. 16140071) and incubated overnight at 37° C. with 5% CO2. Serial dilutions of test article (TA) from 0.06 nM-20 nM (2× final concentration) were pre-incubated with 100 nM Fab-ZAP reagent (2× final concentration) for 30 min at room temperature. […] Cells were then incubated for 96 h at 37° C. with 5% CO2 and viability was determined after 96 h via the CellTiter-Glo assay (Promega cat no. G7570) following the manufacturer's instructions. […] The % CD73 internalization was calculated using the following formula: % CD73 internalization=[1−RLU (sample)/RLU (untreated cells)]×100%. The EC50's for each TA was calculated using the 4 PL non-linear regression analysis in GraphPad Prism software.

[2] = molecular target: T2, CD73 expressed on the MDA-MB-231 cell surface (Homo sapiens, UniProt P21589); assay: Cell-based CD73 enzyme inhibition assay using MDA-MB-231 cells (CellTiter-Glo)
T2 construct: host or cells: MDA-MB-231
T2 sequence (P21589 27-549): T1 sequence (P21589 27-549)
Experimental: The cell-based CD73 enzyme inhibition assay was performed essentially as described above for the cell-free assay, with the following modifications. MDA-MB-231 human breast adenocarcinoma cells (ATCC CRM-HTB-26) were seeded at 2×10^4 cells/well/100 μL into 96-well tissue culture-treated plates (Corning Costar cat no. 3596) and incubated overnight at 37° C., 5% CO2. Cells were incubated with test inhibitors (50 μL/well) and AMP (25 μL/well, final 400 μM) for 3 h at 37° C., 5% CO2 to allow for interaction with CD73 expressed on the MDA-MB-231 cell surface. The 96-well plate was then centrifuged at 125×g for 5 min at room temperature and ATP (25 μL/well, 100 μM final) was combined with supernatant (25 μL/well) in a white opaque 96-well plate (Corning Costar cat no. 3912). The CD73 activity in the supernatant was quantified using the CellTiter-Glo kit (Promega cat no. G7571). Percent CD73 inhibition (y-axis) versus log10 inhibitor concentration (x-axis) were plotted using GraphPad Prism Version 8 and IC50's calculated using nonlinear regression analysis (Sigmoidal, 4 PL).
An additional assay was performed to test the effect of linker length on IC50 potency using the cell-based CD73 enzyme inhibition assay. Conjugate 194, Conjugate 195, and Conjugate 196 have the same small molecule targeting moiety (Int) as Conjugate 172c (batch 9) but with varying linker lengths.

CD73 = molecular target: T3, CD73 (Homo sapiens, UniProt P21589); assay: Cell-free CD73 enzyme inhibition assay (BPS Bioscience kit, colorimetric free phosphate); assay type: biochemical; conditions: AMP 100 μM, 25 min at 37° C.
T3 sequence (P21589 27-549): T1 sequence (P21589 27-549)
Experimental: The cell-free CD73 enzyme inhibition assay was performed in a 96-well plate format using the CD73 Inhibitor Screening Assay Kit in accordance with the manufacturer's instructions (BPS Bioscience cat no. 72055). […] Colorimetric detection reagent was then added (100 μL/well) and the free phosphate from the CD73 reaction was measured by reading the absorbance at 630 nm using the EnSpire multimode plate reader (PerkinElmer). Wells without test inhibitor (CD73 positive control) were included on each plate. Blank wells without test inhibitor and CD73 were subtracted from all wells. Percent CD73 inhibition (y-axis) versus log10 inhibitor concentration (x-axis) was plotted using GraphPad Prism Version 8 and IC50's calculated using nonlinear regression analysis (Sigmoidal, 4 PL).

human CD73/NT5E protein = molecular target: T4, human CD73/NT5E protein (Homo sapiens, UniProt P21589); assay: Human CD73 binding by surface plasmon resonance; conditions: SPR, Biacore 8k; DFCs and mAbs on His-captured CD73, small molecules on NTA-captured CD73 (Table 14)
T4 construct: purchased Acro Biosystems CD3-H52H7
T4 sequence (P21589 27-549): T1 sequence (P21589 27-549)
Experimental: Kinetic binding of drug-Fc conjugates (DFCs) and comparator monoclonal antibodies (mAbs) to human CD73 by surface plasmon resonance (SPR) was performed by Acro Biosystems using the Biacore 8 k system (Cytiva). The anti-histidine antibody included in the His Capture Kit, type 2 (cat no. 29234602, Cytiva) was diluted to 50 μg/mL in immobilization buffer (10 mM sodium acetate, pH 4.5; cat no. 29234602, Cytiva) and immobilized at a flow rate of 10 μL/min for 420 s to 10,000 RU on a Series S Sensor Chip CM5 (cat no. 29149603, Cytiva). […] Sensorgrams were recorded by flowing 2-fold dilutions of analyte (DFC or mAb) in running buffer at concentrations ranging from 125 nM to 0.977 nM. Binding was measured at a flow rate of 30 μL/min, with a 90 s association phase and 120 s dissociation phase. […] Binding kinetics were analyzed using the data analysis software. […]
Binding of small molecule benchmark inhibitors to human CD73 by SPR was performed by Acro Biosystems using the Biacore 8 k system (Cytiva). […] Sensorgrams were recorded by flowing 2-fold dilutions of DFC analytes in running buffer at concentrations ranging from 15.625 nM to 0.977 nM. Binding was measured at a flow rate of 30 μL/min, with a 120 s association phase and 300 s dissociation phase. […] Binding kinetics were analyzed using the data analysis software. […]

[3] = MDA-MB-231 cells, AMP 400 μM, 3 h, Table 29 experiment

Structure (SMILES) | EC50 ([1]; Homo sapiens, PBMC) | EC50 [1] | Cell internalization EC50 (nM) (CD73 on MDA-MB-231 cells; 72 h (Table 11)) | Cell internalization EC50 (nM) (CD73 on MDA-MB-231 cells; 96 h (Table 23)) | IC50 [2, 3] | IC50 (CD73) | Kd (human CD73/NT5E protein) | IC50 ([2]; additional assay on linker length, Table 30 experiment)
C[C@H](Nc1cc(Cl)nc2c1cnn2[C@@H]1O[C@H](COP(=O)(O)CP(=O)(O)O)[C@@H](O)[C@H]1O)c1ccccc1F [AB680] | 5 nM | – | – | – | – | – | – | –
COC[C@](CO)(OC[C@H]1O[C@@H](n2ncc3c(NC4CCCC4)nc(Cl)nc32)[C@H](O)[C@@H]1O)P(=O)(O)O [OP5244] | – | 1 nM | – | – | – | – | – | –
COC[C@](CO)(OC[C@H]1O[C@@H](n2ncc3c(NC4CCCC4)nc(Cl)nc32)[C@H](O)[C@@H]1O)P(=O)(O)O [OP-5244] | – | – | did not induce receptor internalization | No activity | 0.9 nM and 0.87 nM | 3.8 nM and 3.79 nM | 0.523 nM | –
O=P(O)(O)COC[C@H]1O[C@@H](n2ncc3c(N4CC5(CCc6ccccc65)C4)nc(Cl)nc32)[C@H](O)[C@@H]1O [SHR170008] | – | – | did not induce receptor internalization | – | 3.7 nM | 12.9 nM | 3.34 nM | 4 nM
